# Results from US20230000924A1, “COMPOSITIONS AND METHODS FOR GENERATION OF SINOATRIAL NODE-LIKE CELLS AND THEIR USE IN DRUG DISCOVERY” (Cornell University, priority 2019, published 2023).
# “Also recorded” adds a separate entry of the source.
# How the values were obtained:
# [1] = system: hESC-SAN cells; test: Ca2+-flux assay (calcium imaging) in hESC-SAN cells; format: cell-based, human; settings: 1 μM ivabradine, recordings after 5 min vs baseline
# Experimental: (§1) FIG. 2. Functional characterization of hPSC-SAN cells. a, Immunofluorescent co-staining of GFP with pacemaker-associated transcription factors (ISL1, TBX5 and NKX2.5) and ion channels (HCN4, Cav3.1, Cav1.3 and Cx30.2) in cells differentiated to day 30 or day 60. Scale bar=200 μM. b, qRT-PCR analysis using samples from GFP^+ (G+) or mCherry^+ (Ch+) cells at day 25 or day 45. n=3 independent experiments. Fold-change was normalized to undifferentiated hESC. c, Schematic for co-culture of hESC-derived ANs expressing eYFP-channelrhodopsin-2 with either hPSC-SAN or hESC-V; d, Immunofluorescence (left) and electron microscopy images (right) of hESC-AN and hPSC-SAN after 12 weeks of co-culture. Scale bar: 100 μM and 1 μM, respectively; e, Basal release of catecholamine was analyzed using an ELISA kit for AN alone, AN+hES-SAN and AN+hES-V conditions after 8 weeks of co-culture. n=3 independent experiments. f, Representative image of averaged action potentials recorded from an individual hPSC-SAN (left) and distribution (right) of dV/dtmax, APD30 and APD90 recorded used day 30 cells; g, Quantitative analysis of day 30 hPSC-SAN function in response to 1 μM ivabradine. Fold change in calcium transient amplitude (deltaF/F0) of hPSC-SAN or hESC-V cells before and after treatment with ivabradine (n=22 for hESC-SAN and =17 for hESC-V). *p<0.05 **p<0.01. t-test. Data are mean±s.e.m. […]
# [2] = system: hESC-derived ventricular myocytes (hESC-V); test: Ca2+-flux assay (calcium imaging) in hESC-derived ventricular myocytes; format: cell-based, human; settings: cardiomyocyte (hESC-V) cultures, 1 μM ivabradine, recordings after 5 min vs baseline
# Experimental: as §1
# [3] = system: SHOX2:GFP+ cells; test: Epigenetic library screen for SHOX2:GFP+ cells; format: cell-based, human; settings: condition 8, compound added at day 7, after 14 days of differentiation
# Source text: To quantify and purify SAN-like cells using this directed differentiation protocol, a dual knock-in SHOX2:GFP; MYH6:mCherry reporter line was created using CRISPR/Cas-based gene-targeting techniques (FIG. 6b). Immunofluorescence and FACS analyses confirmed the success of the protocol for generating putative hPSC-SAN cells, as condition 8 maximizes generation of SHOX2:GFP^+ cells (FIG. 1c, d). The sorted GFP^+ cells were enriched approximately 4000-fold for SHOX2 transcript levels compared to GFP^− cells (FIG. 1e), and most of the GFP^+ cells co-express ISL1 and HCN4, proteins closely associated with the development and function of SAN cells (FIG. 6b). To further enhance production of GFP^+ cells, we considered that SAN development may also be controlled epigenetically and performed an unbiased screen using a library of known epigenetic modulatory compounds. Cells were differentiated using condition 8 with compounds added at day 7 (FIG. 1f and FIG. 6c).
# Pacemaker and cardiomyocyte induction. Differentiation was initiated 72 hours after plating when the culture was approximately 80% confluent. Step 1: Cells were differentiated with 1.5 μM CHIR99021 (CHIR, Stem-RD, Ch), 20 ng/mL BMP4 (B) and 20 ng/mL Activin A (AA) in RPMI (Cellgro) supplemented with B27 minus insulin, 2 mM GlutaMAX, 1× NEAA and 1× Pen/Strep for 3 days (RB27-INS). […]
# [4] = system: murine SAN; test: Ex vivo murine atrial explants (SAN cell death, contraction rhythmicity)
# Experimental: FIG. 15. […] Quantification of contraction rhythmicity of explants was calculated by the COV as described above.
# FIG. 16. […] Quantification of contraction rhythmicity of explants was calculated by the COV as described above.
# Thus, we used an ex vivo model to document the direct effect of Doxorubicin and Physcion on the murine SAN. Whole, intact atrial explants were incubated with 1 μM doxorubicin or 1 uM doxorubicin+20 μM Physcion for 3 hrs.
# [5] = system: hPSC-SAN cells; test: Chemical screen and validation for rescue of DOXO toxicity in hPSC-SAN cells; format: cell-based, human
# Experimental: The fold change was calculated by dividing the percentage of cleaved caspase-3^+ cells in GFP^+ or mCherry^+ cells in the DOXO-treated condition by the percentage of cleaved caspase-3^+ cells in GFP^+ or mCherry^+ cells in the DMSO-treated condition (n=10); b, Sensitivity of day 30 hiPSC-SAN cells derived from 48 hiPSC lines upon DOXO treatment. […] The fold change was calculated by dividing the percentage of cleaved caspase-3^+ cells in ISL1^+ cells in the DOXO-treated condition by the percentage of cleaved caspase-3^+ cells in ISL1^+ cells in the DMSO-treated condition. […] Data were normalized to non-DOXO treated cells (n=4). h, Quantification of cell toxicity on hPSC-SAN cells derived from sensitive iPSC lines after co-treatment with DOXO and either 10 μM physcion (n=3) or DMSO (n=4). *p<0.05 **p<0.01. t-test. Data are mean±s.e.m. Data were normalized to non-DOXO treated cells.
# Day 35 cells were treated for 3 days with DOXO and small molecules.
# 1472 compounds were tested consisting of FDA-approved drugs and natural products. Hit targets were selected based on a reduced percent ratio of GFP^+ cleaved caspase-3^+/GFP^+ cells (FIG. 11a). The compounds that decreased the cell death rate by more than two-fold of the standard deviation below the average of DMSO-treated samples were selected as primary hits. […]
# [6] = system: A549 human epithelial lung cancer cells; test: Chemotherapeutic effect on A549 cells in culture; format: cell-based; settings: 72 hrs
# Experimental: FIG. 17. […] We tested the effects of Physcion and Physcion+Doxorubicin on A549 human epithelial lung cancer cells grown in culture. 5×10^4 cells were treated with varying doses of Doxorubicin and Physcion for 72 hrs.
# [7] = system: A549 xenograft tumors; test: A549 xenograft mouse model; format: in vivo; settings: IP once a week for two weeks
# Experimental: FIG. 18. […] We tested the effects of Doxorubicin and Physcion using an A549 xenograft mouse model. Mice with A549 xenograft tumors were treated with vehicle, Doxorubicin, Physcion, or Doxorubicin plus Physcion. Doxorubicin and Physcion treatment was administered by IP injection once a week for two weeks, at a concentration of 4 mg/kg wt for both compounds.
# [8] = 1 uM doxorubicin+20 μM Physcion, 3 hrs
compound,measurement,setting,value
"COc1cc2c(cc1OC)CC(=O)N(CCCN(C)C[C@H]1Cc3cc(OC)c(OC)cc31)CC2 [ivabradine, Ivabradine]",contractions and calcium activity,[1],significant reduction
same,contractions and calcium activity,[2],no significant difference
Nc1cc(F)ccc1NC(=O)c1ccc(CNC(=O)/C=C/c2cccnc2)cc1 [chidamide],percentage of GFP+ cells,[3],~50%
"COc1cc(O)c2c(c1)C(=O)c1cc(C)cc(O)c1C2=O [Physcion, physcion]",doxorubicin-induced SAN cell death of explants,[4]; [8],blocks
same,doxorubicin-induced arrhythmic contractility of explants,[4]; [8],blocks
same,contraction rhythmicity of explants (COV),[4]; 1.5 μM Doxorubicin+20 μM Physcion,regained rhythmic contractions with minimal variance in periods between contractions
same,effective dose to rescue DOXO-induced cell toxicity,"[5]; hPSC-SAN cells, 0.16 μM DOXO, 3 days",10 to 20 µM
same,toxicity levels in hPSC-SAN cells from sensitive iPSC lines,"[5]; three most sensitive iPSC lines, DOXO with 10 μM Physcion vs without",significant decrease in toxicity levels
same,chemotherapeutic effects of Physcion alone,[6],does not exhibit chemotherapeutic effects
same,effect on chemotoxic effects of Doxorubicin,"[6]; Physcion as high as 50 μM, varying doses of Doxorubicin",did not block; also recorded: did not inhibit
same,"tumor burden / growth (tumor wt. and volume), single agent",[7]; 4 mg/kg,did not affect tumor growth
same,effect on chemotherapeutic effects of Doxorubicin in vivo,"[7]; Physcion plus Doxorubicin, 4 mg/kg each",did not block; also recorded: did not inhibit the chemotherapeutic effects of Doxorubicin
